Legend:
[1] = cited from earlier work
[2] = molecular target: T1, receptor tyrosine phosphatase mu (RPTPμ) (Homo sapiens, UniProt P28827); experiment: RPTPμ tyrosine phosphatase activity assay; assay type: biochemical; conditions: treatment of HPMVEC
T1 construct: Treated or untreated HPAEC lysates and/or immunoprecipitated RPTPμ were analyzed for tyrosine phosphatase activity; host or cells: human pulmonary endothelial cells (HPMVEC, 'HPAEC')

[3] = methadone maintenance patients; mean dose 0.1 mg/kg intravenously; cited from earlier work
S1P3 receptor = experiment: Tyrosine phosphorylation (transactivation) of the S1P3 receptor; assay type: cell-based, Human
[4] = in vivo; cited from earlier work
[5] = system: PA-I lectin/adhesin expression in P. aeruginosa 27853/PLL-EGFP
[6] = system: Human pulmonary microvascular endothelial cell; assay type: cell-based
[7] = system: total endothelial cell tyrosine phosphatase activity; experiment: Total cellular tyrosine phosphatase activity assay; assay type: cell-based, Human
P. aeruginosa PA27853 = assay type: in vivo, mice; conditions: slow release morphine pellets; daily 1×10^8 cfu/ml PA27853
[8] = system: membrane protein fractions of P. aeruginosa; experiment: Binding of morphine to P. aeruginosa membrane protein; design: species or system Pseudomonas aeruginosa
[9] = system: PA-I lectin/adhesin expression in P. aeruginosa PA27853 and PAO1
[10] = intravenously applied; cited from earlier work

T1 sequence (P28827 21-1452): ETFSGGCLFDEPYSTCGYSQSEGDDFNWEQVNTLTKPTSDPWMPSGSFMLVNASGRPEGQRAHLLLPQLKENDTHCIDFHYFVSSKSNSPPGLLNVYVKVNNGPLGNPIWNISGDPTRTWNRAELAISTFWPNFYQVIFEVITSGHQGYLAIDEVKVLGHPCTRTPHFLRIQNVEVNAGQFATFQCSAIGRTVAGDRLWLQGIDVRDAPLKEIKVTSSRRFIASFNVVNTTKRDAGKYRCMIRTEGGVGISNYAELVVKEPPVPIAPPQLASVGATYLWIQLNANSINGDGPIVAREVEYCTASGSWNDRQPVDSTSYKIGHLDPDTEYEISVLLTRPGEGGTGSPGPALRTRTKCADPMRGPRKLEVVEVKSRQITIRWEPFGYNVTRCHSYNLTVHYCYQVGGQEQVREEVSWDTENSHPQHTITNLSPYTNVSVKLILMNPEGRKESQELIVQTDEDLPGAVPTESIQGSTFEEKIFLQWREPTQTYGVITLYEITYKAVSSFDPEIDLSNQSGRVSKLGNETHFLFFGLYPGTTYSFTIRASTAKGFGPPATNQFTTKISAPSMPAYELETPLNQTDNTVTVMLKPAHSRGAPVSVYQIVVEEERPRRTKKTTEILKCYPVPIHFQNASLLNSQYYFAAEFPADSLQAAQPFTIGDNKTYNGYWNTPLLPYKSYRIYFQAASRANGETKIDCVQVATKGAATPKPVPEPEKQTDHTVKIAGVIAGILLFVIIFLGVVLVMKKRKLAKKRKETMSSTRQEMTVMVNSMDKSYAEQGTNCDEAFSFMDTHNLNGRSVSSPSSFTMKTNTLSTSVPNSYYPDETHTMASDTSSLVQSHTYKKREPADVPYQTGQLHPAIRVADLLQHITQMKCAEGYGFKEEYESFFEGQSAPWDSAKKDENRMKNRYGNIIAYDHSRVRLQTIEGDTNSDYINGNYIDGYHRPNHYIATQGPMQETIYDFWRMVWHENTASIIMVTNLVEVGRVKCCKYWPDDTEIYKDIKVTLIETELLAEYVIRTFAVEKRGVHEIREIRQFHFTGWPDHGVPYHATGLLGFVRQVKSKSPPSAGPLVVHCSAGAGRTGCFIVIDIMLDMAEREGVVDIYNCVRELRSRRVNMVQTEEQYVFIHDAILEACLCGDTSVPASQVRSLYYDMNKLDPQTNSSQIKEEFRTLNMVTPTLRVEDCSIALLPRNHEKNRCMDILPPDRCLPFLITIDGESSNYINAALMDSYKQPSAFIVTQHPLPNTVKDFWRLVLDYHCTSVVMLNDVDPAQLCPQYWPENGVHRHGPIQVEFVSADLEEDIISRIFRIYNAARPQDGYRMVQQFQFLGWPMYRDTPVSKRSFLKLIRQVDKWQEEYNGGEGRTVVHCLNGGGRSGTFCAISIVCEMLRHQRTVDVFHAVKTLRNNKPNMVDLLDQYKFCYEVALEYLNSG

With `C[N+]1(CC2CC2)CCC23c4c5ccc(O)c4OC2C(=O)CCC3(O)C1C5` (stereo not shown) [MNTX, N-methylnaltrexone] as the compound, how does the “lipid solubility / polarity” value [1] read?
Its value is “greater polarity and lower lipid solubility”.

What about the “RPTPμ tyrosine phosphatase activity” value [2] of the same compound?
The value was “enhanced RPTPμ tyrosine phosphatase activity”.

What about the mean plasma levels [3] of the same compound?
The mean plasma levels was 162 ng/mL.

What about the “Src tyrosine phosphorylation of isolated S1P3 receptor, in vitro” value (S1P3 receptor; RPTPμ from MNTX-treated (1 hour) endothelial cells) of the same compound?
Its value is “blocked Src tyrosine phosphorylation of the S1P3 receptor”.

And the “effect on agonist-induced S1P3 receptor transactivation” value (S1P3 receptor; pre-treatment)?
Its value is “completely blocked”.

And the “crossing of the blood-brain barrier” value [4]?
The value was “does not cross the blood-brain barrier”.

What about the “effect on morphine-induced PA-I lectin/adhesin expression” value [5] of the same compound?
The value was “significantly attenuated”.

And the “MNTX protection from thrombin- and LPS-induced disruption with mOP-R silenced (siRNA)” value [6]?
Its value is “little effect”.

What about the “MNTX protection with RPTPμ silenced (siRNA)” value [6] of the same compound?
The value was “inhibited the protective effects of MNTX”.

What about the “MNTX protection with S1P3 receptor silenced (siRNA)” value [6] of the same compound?
Its value is “inhibited”.

What about the “dose dependence of barrier protective effects” value [6] of the same compound?
Its value is “Decreasing the dose of MNTX below 0.1 μM attenuated its barrier protective effects”.

What about the “effect on LPS-induced endothelial cell barrier disruption” value [6] of the same compound?
The value was “attenuated endothelial cell barrier disruption”.

What about the “effect on MS- and DAMGO-induced endothelial cell barrier disruption” value [6] of the same compound?
Its value is “blocked”.

What about the “effect on S1P barrier enhancement” value [6] of the same compound?
The value was “increased the sustained endothelial cell barrier-enhancing effect”.

And the “effect on ionomycin-induced endothelial cell barrier disruption” value [6]?
The value was “but not from the Ca^2+ ionophore, ionomycin”.

And the “effect on thrombin-induced endothelial cell barrier disruption” value [6]?
The value was “attenuated endothelial cell barrier disruption”.

What about the “total endothelial cell tyrosine phosphatase activity” value [7] of the same compound?
Its value is “increased total endothelial cell tyrosine phosphatase activity”.

What about the “MNTX-mediated increase of total tyrosine phosphatase activity with RPTPμ silenced” value ([7]; siRNA) of the same compound?
The value was “significantly attenuated”.

Which “mice developing severe sepsis” value (P. aeruginosa PA27853) does the source give for `CN1CC[C@]23c4c5ccc(O)c4O[C@H]2[C@@H](O)C=C[C@H]3[C@H]1C5` [morphine] here?
Its value is 4/4.

And the mortality (P. aeruginosa PA27853)?
Its mortality is “significant mortality”.

What about the “binding to membrane protein fractions” value [8] of the same compound?
Its value is “binds to membrane protein fractions”.

What about the “increase in PA-I expression” value [9] of the same compound?
The value was “four-fold”.

What about the “response to express PA-I” value [9] of the same compound?
The value was “induce a robust response”.

What about the “concentration accumulated at tissue sites such as the intestinal mucosa” value [10] of the same compound?
Its value is ≤ 100 µM.

And the “effect of agonist alone on endothelial cell barrier function (TER)” value [6]?
The value was “induced endothelial cell barrier disruption in a dose-dependent manner”.
